Read-outs that look alike come from different tables or passages of the source.
Experiments:
[1] = tested on: Ovcar3-GTL catenae; assay: Ovcar3-GTL catena drug sensitivity / proliferation screen (alamarBlue, 384-well); conditions: for Increase in Resistance Day6/Day 1: ratio of IC50 day 6 to day 1, Ovcar3-GTL catenae
[2] = tested on: catena cells; assay: Morphological observation of treated catenae under the microscope; format: cell-based; conditions: for morphological change of treated catenae: microscope observation; for cells seen in cultures treated with high concentrations of compounds: 100 μM (rapamycin 25 μM, lovastatin acid 50 μM), cells re-entered the cell cycle without drug
[3] = 24 h, read-out: IC50 (μM) Addition on Day 1, Ovcar3-GTL catenae, compound added one day after seeding (cells predominantly lacking a glycocalyx)
[4] = 144 h, read-out: IC50 (μM) Addition on Day 6, Ovcar3-GTL catenae, compound added six days after seeding (established or substantial glycocalyx)
[5] = read-out: IC50 (μM) Addition on Day 1, Ovcar3-GTL catenae, compound added one day after seeding (cells predominantly lacking a glycocalyx)
[6] = read-out: IC50 (μM) Addition on Day 6, Ovcar3-GTL catenae, compound added six days after seeding (established or substantial glycocalyx)

Compound | IC50 [1, 3] [µM] | IC50 [1, 4] [µM] | Increase in Resistance Day6/Day 1 [1] | other results
O=c1[nH]cc(F)c(=O)[nH]1 [5-FU, 5-fluorouracil] | 3 | > 100 | 33 fold | morphological change of treated catenae [2]: formation of fused chains
Nc1ccn([C@@H]2O[C@H](CO)[C@@H](O)[C@@H]2O)c(=O)n1 [Ara-C] | – | – | 2,000 fold | IC50 [1, 5]: 0.05 µM; IC50 [1, 6]: > 100 µM; cells seen in cultures treated with high concentrations of compounds [2]: live, large single cells, i.e., cells arrested at mitosis
O=C(CCCCCCC(=O)Nc1ccccc1)NO [SAHA, Vorinostat] | – | – | – | morphological change of treated catenae [2]: formation of tight spheroids
C/C1=C/C[C@@H](/C(C)=C/c2csc(C)n2)OC(=O)C[C@H](O)C(C)(C)C(=O)[C@H](C)[C@@H](O)[C@@H](C)CCC1 [dEpoB] | – | – | 250,000 fold | IC50 [1, 5]: 0.0004 µM; IC50 [1, 6]: > 100 µM
Cc1nc(Nc2ncc(C(=O)Nc3c(C)cccc3Cl)s2)cc(N2CCN(CCO)CC2)n1 [dasatinib] | > 100 | > 100 | – | –
COc1cccc2c1C(=O)c1c(O)c3c(c(O)c1C2=O)C[C@@](O)(C(C)=O)C[C@@H]3O[C@H]1C[C@H](N)[C@H](O)[C@H](C)O1 [daunarubacin] | – | – | 133 fold | IC50 [1, 5]: 0.006 µM; IC50 [1, 6]: 0.8 µM
c1ccc2c(c1)[I+]c1ccccc1-2 [diphenyleneiodonium chloride] | – | – | – | toxicity to catena cells with a glycocalyx coat [1]: exert toxicity
COc1cccc2c1C(=O)c1c(O)c3c(c(O)c1C2=O)C[C@@](O)(C(=O)CO)C[C@@H]3O[C@H]1C[C@H](N)[C@H](O)[C@H](C)O1 [doxorubicin] | 0.025 | 0.8 | 32 fold | –
COc1cc([C@@H]2c3cc4c(cc3[C@@H](O[C@@H]3O[C@@H]5CO[C@@H](C)O[C@H]5[C@H](O)[C@H]3O)[C@H]3COC(=O)[C@H]23)OCO4)cc(OC)c1O [etoposide] | 0.4 | 50 | 125 fold | –
CC[C@H](C)C(=O)O[C@H]1C[C@@H](C)C=C2C=C[C@H](C)[C@H](CC[C@@H](O)C[C@@H](O)CC(=O)O)[C@H]21 [lovastatin acid] | 25 | 50 | 2 fold | cells seen in cultures treated with high concentrations of compounds [2]: live, large single cells, i.e., cells arrested at mitosis
CO[C@@]12[C@H](COC(N)=O)C3=C(C(=O)C(C)=C(N)C3=O)N1C[C@@H]1N[C@@H]12 [mitomycin-C] | – | – | 60 fold | IC50 [1, 5]: 0.05 µM; IC50 [1, 6]: 3 µM
CO[C@H]1C[C@@H]2CC[C@@H](C)[C@@](O)(O2)C(=O)C(=O)N2CCCC[C@H]2C(=O)O[C@H]([C@H](C)C[C@@H]2CC[C@@H](O)[C@H](OC)C2)CC(=O)[C@H](C)/C=C(\C)[C@@H](O)[C@@H](OC)C(=O)[C@H](C)C[C@H](C)/C=C/C=C/C=C/1C [rapamycin] | 12 | 25 | 2 fold | –
CC[C@@]1(O)C(=O)OCc2c1cc1n(c2=O)Cc2cc3c(CN(C)C)c(O)ccc3nc2-1 [topotecan] | 0.02 | > 100 | 5,000 fold | cells seen in cultures treated with high concentrations of compounds [2]: live, large single cells, i.e., cells arrested at mitosis
COc1ccc(CCN(C)CCCC(C#N)(c2ccc(OC)c(OC)c2)C(C)C)cc1OC (stereo not shown) [verapamil] | – | – | – | IC50 ([1]; 24 h, read-out: IC50 (μM) Addition on Day 1): > 100 µM; IC50 ([1]; 144 h, read-out: IC50 (μM) Addition on Day 6): > 100 µM

From patent US20150030583A1, “Methods of Treating Serosal Cancer” (SLOAN KETTERING INSTITUTE FOR CANCER RESEARCH, priority 2011, published 2015)
